Reference: patent US8748433B2, “β3 adrenergic receptor agonists” (Merck Sharp & Dohme Corp., priority 2010, dated 2014)
Read-outs that look alike come from different tables or passages of the source.

Legend:
[1] = biological target: T1, human β3 adrenergic receptor (Homo sapiens, UniProt P13945); test: Functional assay: cAMP production in CHO cells stably transfected with cloned β3-adrenergic receptor (LANCE TR-FRET); type: cell-based
T1 construct: expressed in transfected cells; host or cells: CHO cells, stably transfected
T1 sequence (P13945 whole entry): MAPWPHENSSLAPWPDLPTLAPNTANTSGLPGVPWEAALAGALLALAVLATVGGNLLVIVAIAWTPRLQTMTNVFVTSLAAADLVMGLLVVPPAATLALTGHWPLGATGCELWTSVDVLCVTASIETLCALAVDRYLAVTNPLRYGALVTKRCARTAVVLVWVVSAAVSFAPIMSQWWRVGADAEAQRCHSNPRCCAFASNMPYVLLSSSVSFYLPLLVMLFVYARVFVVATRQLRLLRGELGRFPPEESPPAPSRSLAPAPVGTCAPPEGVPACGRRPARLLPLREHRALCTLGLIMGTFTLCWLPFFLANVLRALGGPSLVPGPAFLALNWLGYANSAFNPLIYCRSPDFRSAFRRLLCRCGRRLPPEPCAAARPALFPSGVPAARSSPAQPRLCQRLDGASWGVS
Protocol: cAMP production in response to ligand is measured according to Barton, et al. (1991, Agonist-induced desensitization of D2 dopamine receptors in human Y-79 retinoblastoma cells. Mal. Pharmacol. v3229:650-658) modified as follows. cAMP production is measured using a homogenous time-resolved fluorescence resonance energy transfer immunoassay (LANCE™, Perkin Elmer) according to the manufacture's instructions. Chinese hamster ovary (CHO) cells, stably transfected with the cloned β-adrenergic receptor (β1, β2 or β3) are harvested after 3 days of subculturing. Harvesting of cells is done with Enzyme-free Dissociation. Media (Specialty Media). Cells are then counted and resuspended in assay buffer (Hank's Balanced salt solution supplemented with 5 mM HEPES, 0.1% BSA) containing a phosphodiesterase inhibitor (IBMX, 0.6 mM). The reaction is initiated by mixing 6,000 cells in 6 μL with 6 μL Alexa Fluor labeled cAMP antibody (LANCE™ kit) which is then added to an assay well containing 12 μL of compound (diluted in assay buffer to 2× final concentration). The reaction proceeds for 30 min at room temperature and is terminated by the addition of 24 μL detection buffer (LANCE™ kit). The assay plate is then incubated for 1 h at room temperature and time-resolved fluorescence measured on a Perkin Elmer Envision reader or equivalent. The unknown cAMP level is determined by comparing fluorescence levels to a cAMP standard curve.
The non-selective, full agonist β-adrenergic ligand isoproterenol is used at all three receptors to determine maximal stimulation. The human β3 adrenergic receptor (AR) selective ligand (S)—N-[4-[2-[[2-hydroxy-3-(4-hydroxyphenoxy)propyl]amino]ethyl]-phenyl]-4-iodobenzenesulfonamide is used as a control in all assays. Isoproterenol is titrated at a final concentration in the assay of 10^-10 M to 10-5 and the selective ligand (S)—N-[4-[2-[[2-hydroxy-3-(4-hydroxyphenoxy)propyl]amino]ethyl]phenyl]-4-iodobenzenesulfonamide is titrated at the β3 receptor at concentration of 10^-10 M to 10^-5 M. Unknown ligands are titrated at all 3β-adrenergic receptor subtypes at a final concentration in the assay of 10^-10 M to 10^-5 M to determine the EC50. The EC50 is defined as the concentration of compound that gives 50% activation of its own maximum. Data are analyzed using Microsoft Excel and Graphpad Prism or an internally developed data analysis software package.

β3AR = biological target: T2, β3AR (Rattus norvegicus, UniProt P26255); settings: rats, intravenous administration, cited from earlier work
T2 construct: host or cells: live rats (in vivo, bladder)
T2 sequence (P26255 whole entry): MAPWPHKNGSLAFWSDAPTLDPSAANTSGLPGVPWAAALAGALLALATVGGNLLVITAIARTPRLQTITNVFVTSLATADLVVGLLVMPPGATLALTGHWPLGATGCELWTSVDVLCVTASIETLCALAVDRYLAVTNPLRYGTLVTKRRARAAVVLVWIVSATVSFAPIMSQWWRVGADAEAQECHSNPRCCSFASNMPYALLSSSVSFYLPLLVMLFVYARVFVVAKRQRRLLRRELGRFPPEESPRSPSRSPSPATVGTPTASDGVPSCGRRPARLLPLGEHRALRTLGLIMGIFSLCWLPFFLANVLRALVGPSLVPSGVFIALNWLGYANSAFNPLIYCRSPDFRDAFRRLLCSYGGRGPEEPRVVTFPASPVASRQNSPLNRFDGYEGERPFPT

[2] = Table 2, read-out: Human β3 agonist functional activity
[3] = Table 3, read-out: Human β3 agonist functional activity
[4] = Table 1, read-out: Human β3 agonist functional activity

Row | Structure (SMILES) | EC50 [1, 4] [nM] | also measured
1 | Cc1nc2c(s1)CCC2c1nc2ccc(C[C@@H]3CC[C@H]([C@H](O)c4ccccc4)N3)cc2n1C (single isomer, unassigned) [Example 43] | – | EC50 [1, 2]: 1000 to 3000 nM
2 | Cc1nc2c(s1)CCC2c1nc2ccc(C[C@@H]3CC[C@H]([C@H](O)c4ccccc4)N3)cc2n1C (single isomer, unassigned) [Example 44] | – | EC50 [1, 2]: 1000 to 3000 nM
3 | Cc1nc2c(s1)CCC2c1nc2cc(C[C@@H]3CC[C@H]([C@H](O)c4ccccc4)N3)ccc2n1C (single isomer, unassigned) [Example 45] | – | EC50 [1, 3]: 101 to 1000 nM
4 | Cc1nc2c(s1)CCC2c1nc2cc(C[C@@H]3CC[C@H]([C@H](O)c4ccccc4)N3)ccc2n1C (single isomer, unassigned) [Example 46] | – | EC50 [1, 3]: 1000 to 3000 nM
5 | C[C@H](Cc1ccc2c(c1)OC(C(=O)[O-])(C(=O)[O-])O2)NC[C@H](O)c1cccc(Cl)c1.[Na+].[Na+] [CL316243] | – | bladder capacity (β3AR; cystometric studies): increases bladder capacity; micturition interval (β3AR; cystometric studies): prolongation of micturition interval; residual urine volume (β3AR; cystometric studies): without increasing residual urine volume; bladder pressure (β3AR): reduces bladder pressure
6 | C[C@@H](c1nc2ccc(CC3CC[C@H]([C@H](O)c4ccccc4)N3)cc2[nH]1)n1cccnc1=O (stereo partly drawn) [Example 1, 1-{(1S)-[6-({(2S,5R)-5-[(R)-Hydroxy(phenyl)methyl]pyrrolidin-2-yl}methyl)-1H-benzimidazol-2-yl]ethyl}pyrimidin-2(1H)-one] | 11 to 100 | –
7 | CCc1nc2ccccc2n1CCc1nc2ccc(C[C@@H]3CC[C@H]([C@H](O)c4ccccc4)N3)cc2[nH]1 [Example 5] | 101 to 1000 | –
8 | OC(c1ccccc1)C1CCC(Cc2ccc3nc(CCCn4cccn4)[nH]c3c2)N1 (centres unmarked) [Example 6] | 101 to 1000 | –
9 | O[C@H](c1ccccc1)[C@H]1CC[C@@H](Cc2ccc3nc(CCn4ncc5ccccc54)[nH]c3c2)N1 [Example 7] | 11 to 100 | –
10 | Cc1nc(Cc2nc3ccc(C[C@@H]4CC[C@H]([C@H](O)c5ccccc5)N4)cc3[nH]2)cs1 [Example 8] | 101 to 1000 | –
11 | O[C@H](c1ccccc1)[C@H]1CC[C@@H](Cc2ccc3nc(CCn4ccnc4-c4ccccc4)[nH]c3c2)N1 [Example 10] | 101 to 1000 | –
12 | OC(c1ccccc1)C1CCC(Cc2ccc3nc(CCc4cnn(-c5ccccc5)c4)[nH]c3c2)N1 (centres unmarked) [Example 11] | 101 to 1000 | –
13 | Cc1nn(-c2ccccc2)c(C)c1CCc1nc2ccc(C[C@@H]3CC[C@H]([C@H](O)c4ccccc4)N3)cc2[nH]1 [Example 12] | 101 to 1000 | –
14 | OC(c1ccccc1)C1CCC(Cc2ccc3nc(CCn4cnc5ccccc54)[nH]c3c2)N1 (centres unmarked) [Example 13] | 101 to 1000 | –
15 | Cc1cc2ncn(CCc3nc4ccc(C[C@@H]5CC[C@H]([C@H](O)c6ccccc6)N5)cc4[nH]3)c2cc1C [Example 14] | 101 to 1000 | –
16 | O[C@H](c1ccccc1)[C@H]1CC[C@@H](Cc2ccc3nc(CCn4cncn4)[nH]c3c2)N1 [Example 15] | 101 to 1000 | –
17 | O[C@H](c1ccccc1)[C@H]1CC[C@@H](Cc2ccc3nc(C4CCc5ccnn54)[nH]c3c2)N1 (some centres unmarked) [Example 16] | 101 to 1000 | –
18 | O=C1c2ccccc2C(=O)N1Cc1nc2ccc(C[C@@H]3CC[C@H]([C@H](O)c4ccccc4)N3)cc2[nH]1 [Example 17] | 101 to 1000 | –
19 | O=c1ccncn1Cc1nc2ccc(C[C@@H]3CC[C@H]([C@H](O)c4ccccc4)N3)cc2[nH]1 [Example 19] | 101 to 1000 | –

Row | Structure (SMILES) | EC50 [1, 4] [nM] | also measured
20 | Cc1nc(Cc2nc3ccc(C[C@@H]4CC[C@H]([C@H](O)c5ccccc5)N4)cc3[nH]2)c(C)s1 [Example 20] | 101 to 1000 | –
21 | Cc1nc2c(s1)CCC2c1nc2ccc(C[C@@H]3CC[C@H]([C@H](O)c4ccccc4)N3)cc2[nH]1 (some centres unmarked) [Example 21] | 11 to 100 | –
22 | O[C@H](c1ccccc1)[C@H]1CC[C@@H](Cc2ccc3nc(C4CCc5scnc54)[nH]c3c2)N1 (some centres unmarked) [Example 24] | 11 to 100 | –
23 | OC(c1cccnc1)C1CCC(Cc2ccc3nc(C4CCc5scnc54)[nH]c3c2)N1 (centres unmarked) [Example 26] | 101 to 1000 | –
24 | CC(c1cscn1)c1nc2ccc(C[C@@H]3CC[C@H]([C@H](O)c4cccnc4)N3)cc2[nH]1 (some centres unmarked) [Example 27] | 101 to 1000 | –
25 | C[C@@H](c1nc2ccc(C[C@@H]3CC[C@H]([C@H](O)c4cccnc4)N3)cc2[nH]1)n1cccnc1=O [Example 28] | 101 to 1000 | –
26 | Cc1nc2c(s1)CCC2c1nc2ccc(C[C@@H]3CC[C@H]([C@H](O)c4cccnc4)N3)cc2[nH]1 (some centres unmarked) [Example 29] | 101 to 1000 | –
27 | O=C1c2ccccc2C(=O)N1Cc1nc2ccc(C[C@@H]3CC[C@H]([C@H](O)c4cccnc4)N3)cc2[nH]1 [Example 31] | 101 to 1000 | –
28 | CS(=O)(=O)c1ccccc1-c1nc2ccc(C[C@@H]3CC[C@H]([C@H](O)c4cccnc4)N3)cc2[nH]1 [Example 32] | 11 to 100 | –
29 | CS(=O)(=O)c1ccc(-c2nc3ccc(C[C@@H]4CC[C@H]([C@H](O)c5cccnc5)N4)cc3[nH]2)cc1 [Example 33] | 101 to 1000 | –
30 | CS(=O)(=O)c1cccc(-c2nc3ccc(C[C@@H]4CC[C@H]([C@H](O)c5cccnc5)N4)cc3[nH]2)c1 [Example 34] | 11 to 100 | –
31 | O=C(O)c1ccccc1-c1nc2ccc(C[C@@H]3CC[C@H]([C@H](O)c4cccnc4)N3)cc2[nH]1 [Example 35] | 101 to 1000 | –
32 | O=C(O)c1cccc(-c2nc3ccc(C[C@@H]4CC[C@H]([C@H](O)c5cccnc5)N4)cc3[nH]2)c1 [Example 36] | 101 to 1000 | –
33 | O=C(O)c1ccc(-c2nc3ccc(C[C@@H]4CC[C@H]([C@H](O)c5cccnc5)N4)cc3[nH]2)cc1 [Example 37] | 11 to 100 | –
34 | O[C@H](c1cccnc1)[C@H]1CC[C@@H](Cc2ccc3nc(-c4c(F)cccc4F)[nH]c3c2)N1 [Example 38] | 101 to 1000 | –
35 | OC(c1cccnc1)C1CCC(Cc2ccc3nc(-c4ccccc4C(F)(F)F)[nH]c3c2)N1 (centres unmarked) [Example 39] | 11 to 100 | –
36 | Oc1cccc(-c2nc3ccc(C[C@@H]4CC[C@H]([C@H](O)c5cccnc5)N4)cc3[nH]2)n1 [Example 40] | 1000 to 3000 | –
37 | O[C@H](c1cccnc1)[C@H]1CC[C@@H](Cc2ccc3nc(-c4ccccc4-c4ncc[nH]4)[nH]c3c2)N1 [Example 41] | 101 to 1000 | –
38 | O[C@H](c1cccnc1)[C@H]1CC[C@@H](Cc2ccc3nc(C4CCc5ccnn54)[nH]c3c2)N1 (some centres unmarked) [Example 42] | 101 to 1000 | –
